Values of other authors as cited in US8541223B2, “Lactic acid bacteria having action of lowering blood uric acid level” (Meiji Co., Ltd., priority 2007, dated 2013).

Tested on: dietary hyperuricemia model animals
Conditions: oral administration of allopurinol; from Food Function Research News vol. 14

Oc1ncnc2[nH]ncc12 [allopurinol]
blood uric acid level in the model animals: significantly suppressed
